Our source for the remaining target (mRNA or protein) (fraction of control) values is the OligoGym collection.

These antisense oligonucleotides have a phosphorothioate backbone; sugars and methylation of C are not fully specified.
Also: test concentration or dose not given here.

The first data set concerns the target GNA12. The settings on record: ASO.
For AGCATGATGTCCTTCAGG, the remaining target (mRNA or protein) (fraction of control) came to 0.29. In turn, AGCCCTTGAGGATGTTGT showed a remaining target (mRNA or protein) (fraction of control) of 0.94.

AGGATGTTGTCGAAGATG yielded a remaining target (mRNA or protein) (fraction of control) of 0.77.

AGTGCTTCTTGATGCTCA: the remaining target (mRNA or protein) (fraction of control) was 0.62. Take ATGATGGAGACGTTGAAG: the remaining target (mRNA or protein) (fraction of control) is no less than 1. On the same count and under the same terms, the result for CACAATTCCCTTGGTGGC reads no less than 1. For the sequence CACATCCACCATCTTAAA, the remaining target (mRNA or protein) (fraction of control) is no less than 1. Still for that read-out and setting: as for CACCAGGAGGTCCATCTT, the figure is 0.75. For CAGAATCCCTCCAGAGTG, the remaining target (mRNA or protein) (fraction of control) is 0.37. Same read-out and setting: as for CAGCCGGTTGGTGCGCCT, the figure is 0.25. On the same count and under the same terms, as for CATGAACAGGATGGACGT, the figure is 0.5; as for CATGGAACACGAAGCGGA, 0.57; as for CCAGCAGCGCGTCGATGT, 0.29. Still for that read-out and setting: the result for CCATGCTTCTCATTTTCA reads 0.49; that for CCCCGCCTTGTTCTCGAA, 0.85; that for CCCTGATGCCAGAATCCC, 0.39. On to CCGATCCGGTCCAAGTTG, for which the remaining target (mRNA or protein) (fraction of control) worked out at 0.38. CCGCTGGCCGCCCACATC: the remaining target (mRNA or protein) (fraction of control) was 0.47.

In the case of CCGTCGAAGCACTGGAAC, the remaining target (mRNA or protein) (fraction of control) stood at 0.8. Still for that read-out and setting: as for CCTGAAGTCCGGGAAGTG, the figure is 0.85; as for CCTGTCGAAGCACTGGAC, 0.34; as for CGAAGGCCATCAGGAACA, no less than 1.

CTCAGGGCCGGGACGTAC registered a remaining target (mRNA or protein) (fraction of control) of 0.77.

Take CTCCAGCAGCGCCTTCTG: the remaining target (mRNA or protein) (fraction of control) is no less than 1. The same measure, in the same setting: as for CTCGCGGCCGTGGATGAT, the figure is 0.99. Still for that read-out and setting: the result for CTGAGGGTCCGCACCACC reads no less than 1; that for CTGGAACCACTTCTGGCG, 0.89. Still for that read-out and setting: as for CTGGAGGAGACCATGAAC, the figure is no less than 1; as for CTTATCTCGTGCATCAAC, 0.51.

Regarding CTTGGTGGCTTTCCTAGC, the remaining target (mRNA or protein) (fraction of control) is no less than 1. Still for that read-out and setting: as for GAAAGCCTCCCTGATGCC, the figure is 0.38; as for GAAGCGGACGTTCTCGGT, no less than 1. The same measure, in the same setting: as for GATATCTTGCTTACTAGG, the figure is 0.37; as for GCAGGATCTTCACCAGGC, 0.93. Consider GCGCATCTGCTTGAGGAA, for which the remaining target (mRNA or protein) (fraction of control) amounted to 0.82. The same measure, in the same setting: as for GCGCCTTCTGGTCGAACT, the figure is 0.72; as for GCTCACGGTCTTCACCTT, no less than 1; as for GCTTGAGGAACGTGGACT, 0.31. On the same count and under the same terms, as for GGAAGAGAATGATGGAGA, the figure is no less than 1; as for GGAAGTACTTCACCGACT, no less than 1. For the sequence GGACCTGGTCGTACTCGC, the remaining target (mRNA or protein) (fraction of control) is 0.42.

As to GGATGATGCGCATCTGCT, the remaining target (mRNA or protein) (fraction of control) is no less than 1. The same measure, in the same setting: the result for GGCAGCGGCTGAGGGTCC reads 0.68.

Turning to GGGACGTACAGCTGGAAG, the remaining target (mRNA or protein) (fraction of control) is 0.53. Same read-out and setting: the result for GGTGCGCCTGTCCTCCAT reads 0.33. Regarding GGTGGAAGAGTGGCTTGC, the remaining target (mRNA or protein) (fraction of control) was found to be 0.65.

Take GGTTCTCCTGCAGGATGG: the remaining target (mRNA or protein) (fraction of control) was 0.93.

Sequence GTCCATCTTGTTGAGGAA returned a remaining target (mRNA or protein) (fraction of control) of 0.68.

For GTCGATGTCGCGGCTACG, the remaining target (mRNA or protein) (fraction of control) was no less than 1. GTCGTACTCGCTGGAGGA registered a remaining target (mRNA or protein) (fraction of control) of 0.39. Still for that read-out and setting: as for GTGCATCAACAAGAACCC, the figure is 0.89. Still for that read-out and setting: the result for GTGCGCTCAGGGCCGGGA reads 0.72; that for GTGGACTTGCCGCTCTCG, no less than 1.

GTGGTGAAGTGGTGGAAG displayed a remaining target (mRNA or protein) (fraction of control) of 0.87. On the same count and under the same terms, the result for GTTCCGTCTCTTCCTGTC reads 0.36; that for GTTGAAGAAGAGCTTGTT, 0.33; that for TCAGGAACATCCCATGCT, 0.79. Still for that read-out and setting: the result for TCCATGAGGACCTGGTCG reads 0.79; that for TCCGGTCCAAGTTGTCCA, 0.88.

TCGAAGATGGTGTCGCGG gave a remaining target (mRNA or protein) (fraction of control) of 0.98.

Turning to TCTGGTCGAACTCGCGGC, the remaining target (mRNA or protein) (fraction of control) was 0.7. Still for that read-out and setting: as for TCTTCTTAATAACGAAGT, the figure is 0.48; as for TGGTCTCGAAGATGTTCA, 0.53. On the same count and under the same terms, as for TGTCGCGGAACTCCAGCA, the figure is 0.79; as for TTAATAACGAAGTCATGC, 0.73. The same measure, in the same setting: as for TTCATGGACTCCACCAGC, the figure is 0.57; as for TTGTTGACGATGGTCTCG, 0.73; as for TTTTCAGAATACTGCCAA, 0.63.

For another data set, the target named is PDPK1. The settings on record: ASO.
Take AAAAGAGCCTTCCCCAAG: the remaining target (mRNA or protein) (fraction of control) turned out to be 0.88. The same measure, in the same setting: as for AAACTGGCTCAGGAGATT, the figure is 0.26. On the same count and under the same terms, as for AAAGGTCTGAACTCTTAC, the figure is 0.59; as for AAATAAACCCTTCCGCTT, 0.74.

Sequence AACAACAACCTCTTCTCA displayed a remaining target (mRNA or protein) (fraction of control) of 0.7. Still for that read-out and setting: the result for AACTGGTGCCAAGGGTTT reads 0.54; that for AAGGCCGAAATACAGCTT, 0.29; that for AAGGTCCCTGTGAATGAT, 0.39. In the case of ACTGGATGGGCACGGCGT, the remaining target (mRNA or protein) (fraction of control) is 0.63. AGACTTTTGCTGTTCCAA returned a remaining target (mRNA or protein) (fraction of control) of 0.28.

In turn, AGCGTCCTCCTCCCCGAA showed a remaining target (mRNA or protein) (fraction of control) of 0.87.

As for AGCTGGCTGGTGGTCCTG, the remaining target (mRNA or protein) (fraction of control) came to 0.36. On the same count and under the same terms, the result for AGGCGCGACATGACATCC reads 0.25.

The sequence ATAGCAGTCCTCGTCGTC gave a remaining target (mRNA or protein) (fraction of control) of 0.57.

On to ATATTCTCTGGAGGTTGC, for which the remaining target (mRNA or protein) (fraction of control) worked out at 0.78. Still for that read-out and setting: as for ATCGGGTACAGGTCTCAT, the figure is 0.68; as for ATGTGGTCCTTCTGTGAG, no less than 1; as for ATGTTTTCCGGTTTAAGG, 0.66.

In turn, ATTGTCATAATTGCCATA yielded a remaining target (mRNA or protein) (fraction of control) of 0.78.

ATTTTCTACAAACTGGTG came in with a remaining target (mRNA or protein) (fraction of control) of 0.83.

In turn, CAAGAGCCCAAAGGTCTG had a remaining target (mRNA or protein) (fraction of control) of no less than 1.

As to CAAGGTTTCCGCCTCTGC, the remaining target (mRNA or protein) (fraction of control) was 0.26. On the same count and under the same terms, the result for CAAGTACTCTAAAGCAGA reads 0.65.

CACTGCACAGCGGCGTCC came in with a remaining target (mRNA or protein) (fraction of control) of no less than 1. Still for that read-out and setting: as for CAGCTTCTCGTCGTCCTG, the figure is 0.26; as for CAGGACAACCGTGGAAAA, no less than 1; as for CAGTCTGGGTCCTCACCA, 0.54. Same read-out and setting: as for CATCCCGCTCTCTGGTTA, the figure is 0.41; as for CCAGCTCGGAATGGTGGG, 0.82; as for CCTGAAATGTGAAGTAAA, no less than 1.

Regarding CGAAGTTCTTGTGACCAA, the remaining target (mRNA or protein) (fraction of control) was no less than 1. On the same count and under the same terms, the result for CGATCTCAGCCGTGTAAA reads 0.13; that for CTCAGGCCGCTTCTTCCG, 0.53; that for CTCTAAAGCAGACACAAT, 0.71. In the case of CTGAAATGTGAAGTAAAG, the remaining target (mRNA or protein) (fraction of control) was 0.45. The same measure, in the same setting: as for CTGACAGGGAGTGTGAGG, the figure is no less than 1; as for CTGCTCTATGTTGCTGCC, 0.55.

Sequence CTGGTATCGCTGCCTCCA showed a remaining target (mRNA or protein) (fraction of control) of 0.22. CTTCCATTTCCTCACAGC yielded a remaining target (mRNA or protein) (fraction of control) of 0.33.

In the case of GAAGTCCTCAGGCCGCTT, the remaining target (mRNA or protein) (fraction of control) came to 0.28. The same measure, in the same setting: as for GACATCCCGCTCTCTGGT, the figure is 0.68; as for GAGTTGGCCCTGGCTTGT, 0.5; as for GATTTTGCGAATATATTT, no less than 1. On the same count and under the same terms, as for GCAGGAACATAACACCAC, the figure is 0.54. GCAGGTGTCCTGGCAGCG: the remaining target (mRNA or protein) (fraction of control) came to 0.49. On the same count and under the same terms, as for GCATATTCTCTGGAGGTT, the figure is no less than 1; as for GCATGCTGCAGGGAGCCG, no less than 1. Turning to GCGTCCTCCTCCCCGAAG, the remaining target (mRNA or protein) (fraction of control) was no less than 1. GCTGCAAGGTTTCCGCCT: the remaining target (mRNA or protein) (fraction of control) was no less than 1. GCTGCCTCCAAACCTCCT: the remaining target (mRNA or protein) (fraction of control) is no less than 1.

With GCTGTTCCCACGAATGAG, the remaining target (mRNA or protein) (fraction of control) is 0.39.
